# What was measured:
# ciliary motility = details: cited from earlier work
# [1] = intraduodenally administered to rats; cited from earlier work
# aminopeptidases = details: cited from earlier work
# [2] = aqueous solution, physiologic pH; cited from earlier work
# [3] = tested on: EpiAirway tracheal/bronchial epithelial cell membrane
# Description: Triplicate samples of each formulation and controls were evaluated using the EpiAirway System in vitro model tracheal/bronchial epithelial cell membrane inserts by MatTek Corp. (Ashland, Mass.), catalog #Air-100. […] The epithelial cells are grown on porous membrane-bottomed cell culture inserts at an air-liquid interface, which results in differentiation of the cells to a highly polarized morphology. The apical surface is ciliated with a microvillous ultrastructure and the epithelium produces mucus (the presence of mucin has been confirmed by immunoblotting). The inserts have a diameter of 0.875 cm, providing a surface area of 0.6 cm^2. The cells are plated onto the inserts at the factory approximately three weeks before shipping.
# EpiAirway™ culture membranes were received the day before the experiments started. They were shipped in phenol red-free and hydrocortisone-free Dulbecco's Modified Eagle's Medium (DMEM). […]
# The cell viability of each tissue culture insert was tested by MTT assay. Cell viability was assessed using the MTT assay (MTT-100, MatTek kit). […] The optical density of the samples was measured at 550 nm on a μQuant optical density plate reader using KCJr software.
# The MTT percentage was calculated by dividing the measured MTT value for each formulation by the MTT value of the control formulation multiplied by 100. […]
# [4] = tested on: EpiAirway tracheal/bronchial epithelial cell membrane; experiment: LDH cytotoxicity (cell death) assay, EpiAirway model; assay type: cell-based
# Description: Fresh, cell-free media was used as a blank. 50 μl substrate solution (12 ml Assay Buffer added to a fresh bottle of Substrate Mix, made according to the kit) was added to each well and the plates were incubates for 30 min at RT in the dark.
# [5] = tested on: EpiAirway tracheal/bronchial epithelial cell membrane; experiment: Transepithelial electrical resistance (TEER/TER), EpiAirway model; assay type: cell-based; details: Table 6 formulations, 2 mg/mL GLP-1
# Description: Triplicate samples of each formulation and controls were evaluated using the EpiAirway System in vitro model tracheal/bronchial epithelial cell membrane inserts by MatTek Corp. (Ashland, Mass.), catalog #Air-100.
# EpiAirway™ culture membranes were received the day before the experiments started. They were shipped in phenol red-free and hydrocortisone-free Dulbecco's Modified Eagle's Medium (DMEM). Each tissue insert was placed into a well of a 6 well plate containing 0.9 ml of serum free DMEM. The membranes were then cultured for 24 hrs at 37° C./5% CO2 to allow tissues to equilibrate. […]
# TEER measurements were read using a Tissue Resistance Measurement Chamber connected to an Epithelial Voltohmeter with the electrode leads, both from World Precision Instruments. First, background TEER was read for each insert on the day the experiment began. After TEER was read, 1 ml fresh media was placed in the bottom of each well in a 6-well plate. […]
# The electrodes and a tissue culture blank insert were equilibrated for at least 20 min in fresh media with the power off prior to checking calibration. The background resistance was measured with 1.5 ml media in the Endohm tissue chamber and 300 μl media in a blank Millicell-CM insert. […] For each TEER determination, 300 μl media was added to the insert followed by a 20 min incubation at RT before placement in the Endohm chamber to read TEER. […]
# [6] = after feeding to rats; cited from earlier work
compound,measurement,setting,value
2-alkyl-4-hydroxyquinolines [pyo compound],concentration producing ciliostasis / inhibiting ciliary motility,ciliary motility,50 µg/mL
"9-desglycinamide, 8-arginine vasopressin [DGAVP]",bioavailability increase with 1% (w/v) polycarbophil vs aqueous solution,[1],3-5 fold
CC(C)CC(N)B(O)O (stereo not shown) [boro-leucine],"enzyme inhibition, times more effective than bestatin",aminopeptidases,more than 100 times
same,"enzyme inhibition, times more effective than puromycin",aminopeptidases,more than 1000 times
CCN(CC)/[N+]([O-])=N/O.CCNCC [diethylamine/NO],NO release rate (time),[2],< 3 min
NCCN(CCN)/[N+]([O-])=N/O [diethylenetriamine/NO],NO release rate (time),[2],approximately 20 hours
Octylphenolpoly(ethyleneglycolether)x [LDH Control],% MTT,[3],1%
same,% LDH,[4],100%
same,% TEER Reduction,[5],100%
Phaseolus vulgaris hemagglutinin,oral bioavailability,[6],more than 10%

# From patent US20080318837A1, “Pharmaceutical Formation For Increased Epithelial Permeability of Glucose-Regulating Peptide” (priority 2003, published 2008)
